Measured values as given in US20230270678A1, “PHARMACEUTICAL COMPOSITIONS FOR IMPROVED DELIVERY OF THERAPEUTIC LIPOPHILIC ACTIVES” (KARNAK TECHNOLOGIES, LLC, priority 2020, published 2023).

Tested on: Pseudomonas aeruginosa
Experiment: MIC (minimum inhibition concentration) against P. aeruginosa
Type: cell-based
Method: Compositions with clarithromycin were prepared by cold physical process. Powder clarithromycin compositions were dissolved in water to obtaining nanoemulsion. The control free clarithromycin was dissolved in 1% DMSO. Emulsion dried using lyophilization. Samples were tested in three independent experiments, with triplicate in each experiment. Particle size was measured using DLS. MIC data (minimum inhibition concentrations) of the formulated and free antibiotic were compared.

MIC: 0.0625%
Structure (SMILES): CC[C@H]1OC(=O)[C@H](C)[C@@H](O[C@H]2C[C@@](C)(OC)[C@@H](O)[C@H](C)O2)[C@H](C)[C@@H](O[C@@H]2O[C@H](C)C[C@H](N(C)C)[C@H]2O)[C@](C)(OC)C[C@@H](C)C(=O)[C@H](C)[C@@H](O)[C@]1(C)O [Free clarithromycin, clarithromycin]
